Read-outs that look alike come from different tables or passages of the source.
Columns and labels:
Pseudomonas aeruginosa = test: microbe, parasite or virus in culture; format: cell-based; settings: P. aeruginosa isolates (n per peptide in table)
P. aeruginosa = test: 24-hour time-kill assay at 0.2x, 1x, 5x MIC in CAA, P. aeruginosa; format: cell-based, Pseudomonas aeruginosa
Procedure: The time-kill assays were performed in CAA media at 37° C. with aeration. Quantitative plating was performed at time periods of 0 hours, 1 hour, 3 hours, and 24 hours. The following Chp peptides were evaluated: Chp2, Chp4, Chp2-M1, Chp4-M1, Chp6, Chp6-M1, Chp10, Chp10-M1, Ecp3, Ecp3-M1, Unp2, Unp2-M1, and Ecp1-M1.

M. fortuitum = test: 45 hr MIC against M. fortuitum (NTM); format: cell-based, Mycobacterium fortuitum; settings: M. fortuitum subsp. Fortuitum da Costa Cruz. ATCC 6841
[1] = tested on: Pseudomonas aeruginosa, Escherichia coli, Enterobacter cloacae, Klebsiella pneumoniae, and Acinetobacter baumannii; test: MIC against a range of Gram-negative organisms (statements covering several species); format: cell-based; settings: Tables 40-44 isolates
Procedure: (§1) Determination of Minimal Inhibitory Concentrations (MIC).
(§2) Additional MIC testing was performed for several peptides against the ESKAPE pathogens Escherichia coli, Enterobacter cloacae, Klebsiella pneumoniae, and Acinetobacter baumannii, in CAA supplemented with human serum (Table D).

M. intracellulare = test: 45 hr MIC against M. intracellulare (NTM); format: cell-based, Mycobacterium intracellulare; settings: M. intracellulare (Cuttino and McCabe) Runyon ATCC 13950
M. smegmatis = test: 45 hr MIC against M. smegmatis (NTM), Mueller Hinton broth; format: cell-based, Mycobacterium smegmatis
[2] = tested on: carbapenem-resistant P. aeruginosa clinical isolate CFS-1292; test: MIC by modified CLSI broth microdilution against P. aeruginosa CFS-1292 (CAA, CAA + human serum); format: cell-based, Pseudomonas aeruginosa
[3] = tested on: carbapenem-resistant bacterial strains; test: organism not typed; format: cell-based
Description: as §1

[4] = tested on: P. aeruginosa strain CFS-1292; test: MIC in presence of divalent cations (calcium chloride, magnesium sulfate); format: cell-based, Pseudomonas aeruginosa
Procedure: Next, Chp peptides were evaluated in the presence of different divalent cations. […]; (2) in the presence of 2 mM calcium chloride alone; (3) in the presence of 1 mM magnesium sulfate alone; and (4) in the presence of both 2 mM calcium chloride and 1 mM magnesium sulfate. […]

[5] = tested on: P. aeruginosa strain CFS-1292; test: MIC at pH 6, pH 7 and pH 8; format: cell-based, Pseudomonas aeruginosa
Procedure: The Chp peptides were further evaluated at varying pH levels. The MIC values were determined at pH 6, pH 7, and pH 8 for 18 different Chp peptides against P. aeruginosa strain CFS-1292. […]

M. avium = test: 45 hr MIC against M. avium (NTM); format: cell-based, Mycobacterium avium; settings: M. avium Chester ATCC 700898
[6] = tested on: P. aeruginosa strain CFS-1292; test: MIC in presence of mouse, rat, rabbit and human serum ([…] each); format: cell-based, Pseudomonas aeruginosa; settings: P. aeruginosa CFS-1292
Procedure: The activity of several Chp peptides against P. aeruginosa strain CFS-1292 in animal serum was evaluated. […] Rat, mouse, and rabbit serum were all obtained from pooled gender samples.

[7] = Stability assessment in 100% CAA; format: in vitro ADME; design: unit not given beside the values
Procedure: Stability was assessed after incubation in 100% human serum at 37° C. after 10 minutes, 1 hour, and 2 hours.
Stability assessment was further conducted in 100% CAA and rabbit serum using the same methodology discussed above.

[8] = tested on: P. aeruginosa strain CFS-1292; test: MIC in presence and absence of Survanta pulmonary surfactant; format: cell-based, Pseudomonas aeruginosa
Acinetobacter baumannii = test: microbe, parasite or virus in culture; format: cell-based
S. maltophilia = test: MIC against S. maltophilia isolates; format: cell-based, Stenotrophomonas maltophilia; settings: S. maltophilia isolates (n per peptide in table)
Procedure, shortened: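 MIC in μg/mL for Chp peptides across several S. maltophilia isolates, n denoting the number of isolates tested.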

Klebsiella pneumoniae = format: cell-based
Procedure: as §1, §2

M. scrofulaceum = test: 45 hr MIC against M. scrofulaceum (NTM); format: cell-based, Mycobacterium scrofulaceum; settings: M. scrofulaceum Prissick and Masson ATCC 19981
[9] = tested on: Mycobacterium tuberculosis strains
Procedure: MIC values for various Chp peptides were determined using the CLSI method for broth microdilution in 96-well microtiter format.
Next, MIC values for various Chp peptides were determined using the CLSI method above for broth microdilution in 96-well microtiter format for two different Mycobacterium tuberculosis strains. The MIC was determined as explained above for the NTM strains.

[10] = tested on: M. kansasii Hauduroy ATCC 12478; test: 45 hr MIC against M. kansasii (NTM), Mueller Hinton broth; format: cell-based, Mycobacterium kansasii
[11] = tested on: P. aeruginosa strain CFS-1292; test: MIC in presence and absence of NaCl (140 mM); format: cell-based, Pseudomonas aeruginosa
Procedure: Certain Chp peptides were evaluated over a range of physiological NaCl levels and pH values, and were further evaluated for activity in the presence of various divalent cations.

Escherichia coli = test: microbe, parasite or virus in culture; format: cell-based
Procedure, shortened: (§3)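 Peptide MICs were determined by growth inhibition in CAA medium supplemented with human serum.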

Enterobacter cloacae = test: microbe, parasite or virus in culture; format: cell-based
Procedure, shortened: as §3

[12] = A. baumannii isolates (n per peptide in table)
[13] = K. pneumoniae isolates (n per peptide in table)
[14] = E. coli isolates (n per peptide in table)
[15] = E. cloacae isolates (n per peptide in table)

## MKRRKLSKKKSRKIFTRGAVNVKKRNLRARPMRGGFRI [Chp10]
Pseudomonas aeruginosa
  MIC50: 4 µg/mL
  MIC100: 8 µg/mL
  MIC Range: 0.5 to 8 µg/mL
P. aeruginosa
  Log10 CFU/mL compared to untreated control buffer (24-hour time-kill): all but Chp10 maintaining strong efficacy up to 24 hours
M. fortuitum
  45 hr MIC: 1 µg/mL
[1]
  activity (good = MIC100 of ≤4) against all of P. aeruginosa, K. pneumoniae, A. baumannii, E. cloacae, and E. coli: good activity
M. intracellulare
  45 hr MIC: 0.5 µg/mL
M. smegmatis; M. smegmatis MC^2 155, Run #1
  45 hr MIC: 2 µg/mL
M. smegmatis; M. smegmatis MC^2 155, Run #2
  45 hr MIC: 1 µg/mL
[2]; 100% CAA, 1st run or single value
  MIC (μg/mL) against CFS-1292 in 100% CAA (1st run/2nd run): 0.5 µg/mL
[2]; CAA + […] human serum
  MIC (μg/mL) against CFS-1292 in CAA + […] human serum: 0.5 µg/mL
[3]; carbapenem-resistant isolate PA19
  MIC: 0.5 µg/mL
[3]; carbapenem-resistant isolate PA20
  MIC: 8 µg/mL
[3]; carbapenem-resistant isolate PA21
  MIC: 8 µg/mL
[3]; carbapenem-resistant isolate PA22
  MIC: 8 µg/mL
[3]; carbapenem-resistant isolate PA23
  MIC: 4 µg/mL
[3]; carbapenem-resistant isolate PA24
  MIC: 4 µg/mL
[3]; carbapenem-resistant isolate WLC-452
  MIC: 1 µg/mL
[4]; CAA media + 1 mM MgSO4
  MIC: 1 µg/mL
[4]; CAA media + 2 mM CaCl2
  MIC: 1 µg/mL
[4]; CAA media + + 1 mM MgSO4
  MIC: 2 µg/mL
[4]; CAA media alone
  MIC: 0.5 µg/mL
[5]; CAA media (pH 7)
  MIC: 0.5 µg/mL
[5]; pH 6
  MIC: 2 µg/mL
[5]; pH 7
  MIC: 1 µg/mL
[5]; pH 8
  MIC: 1 µg/mL
M. avium
  45 hr MIC: 0.5 µg/mL
[6]; BALB/C mouse serum […]
  MIC BALB/C Mouse Serum: 32 µg/mL
[6]; CAA
  MIC CAA: 1 µg/mL
[6]; New Zealand White rabbit serum […]
  MIC New Zealand White Rabbit Serum: 4 µg/mL
[6]; Sprague Dawley rat serum […]
  MIC Sprague Dawley Rat Serum: 4 µg/mL
[6]; human serum […]
  MIC Human Serum: 1 µg/mL
[7]
  MIC (100% CAA): 0.5
[8]; CAA media + 0.19 mg/mL Survanta
  MIC: 0.5 µg/mL
[8]; CAA media + […] Survanta
  MIC: 0.5 µg/mL
[8]; CAA media alone
  MIC: 0.5 µg/mL
Acinetobacter baumannii; [12]
  MIC50: 0.5 µg/mL
  MIC100: 0.5 µg/mL
  MIC Range: 0.25 to 0.5 µg/mL
Acinetobacter baumannii; Acinetobacter baumannii ATCC BAA 747, CAA supplemented with human serum
  MIC: 2 µg/mL
S. maltophilia
  MIC50: 8 µg/mL
  MIC100: >8 µg/mL
Klebsiella pneumoniae; [13]
  MIC50: 0.25 µg/mL
  MIC100: 0.5 µg/mL
  MIC Range: 0.125 to 0.5 µg/mL
Klebsiella pneumoniae; Klebsiella pneumoniae HM-44, CAA supplemented with human serum
  MIC: 0.5 µg/mL
M. scrofulaceum
  45 hr MIC: 0.5 µg/mL
[9]; Mycobacterium tuberculosis (Zopf) Lehmann and Neumann ATCC 25177
  MIC: 32 µg/mL
[9]; Mycobacterium tuberculosis (Zopf) Lehmann and Neumann ATCC 35817
  MIC: 8 µg/mL
[10]
  45 hr MIC: 4 µg/mL
[11]; CAA + 140 mM NaCl versus CAA without added NaCl
  Fold change in MIC: 4
[11]; CAA + 140 mM NaCl, P. aeruginosa CFS-1292
  MIC, CAA + 140 mM NaCl: 2 µg/mL
[11]; CAA, no added NaCl, P. aeruginosa CFS-1292
  MIC, CAA (no added NaCl): 0.5 µg/mL
Escherichia coli; [14]
  MIC50: 0.5 µg/mL
  MIC100: 1 µg/mL
  MIC Range: 0.03 to 0.2 µg/mL
Escherichia coli; Escherichia coli ATCC 25922, CAA supplemented with human serum
  MIC: 0.5 µg/mL
Enterobacter cloacae; [15]
  MIC50: 0.25 µg/mL
  MIC100: 1 µg/mL
  MIC Range: 0.125 to 2 µg/mL
Enterobacter cloacae; Enterobacter cloacae ATCC 13047, CAA supplemented with human serum
  MIC: 1 µg/mL
